According to patent publication US5304565A, “Nitrogen containing heterocyclic compounds, their production and use” (Takeda Chemical Industries, Ltd., priority 1990, dated 1994):

Experiments:
[1] = target: T1, A-II-receptor (membrane fraction of bovine adrenal cortex) (Bos taurus, UniProt P25104); experiment: Inhibition of binding of angiotensin-II to angiotensin receptor (radio receptor assay, 125I-A-II); details: room temperature, one hour; for inhibition at 1 µM: 10^-6 M; for inhibition at 0.1 µM: 10^-7 M
T1 construct: prepared from the membrane fraction of bovine adrenal cortex; from tissue; host or cells: bovine adrenal cortex, membrane fraction
T1 sequence (P25104 1-359): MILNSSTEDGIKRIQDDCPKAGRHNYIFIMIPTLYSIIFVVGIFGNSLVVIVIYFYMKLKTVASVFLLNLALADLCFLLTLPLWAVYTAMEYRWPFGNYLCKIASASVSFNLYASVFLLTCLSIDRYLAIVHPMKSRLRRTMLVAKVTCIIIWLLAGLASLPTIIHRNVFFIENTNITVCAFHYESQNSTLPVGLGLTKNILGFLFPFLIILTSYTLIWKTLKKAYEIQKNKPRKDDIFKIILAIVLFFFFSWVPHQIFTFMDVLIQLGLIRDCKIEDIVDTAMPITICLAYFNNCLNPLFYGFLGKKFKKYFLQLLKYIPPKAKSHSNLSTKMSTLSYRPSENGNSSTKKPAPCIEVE
Protocol: An experiment of inhibition on the binding of angiotensin-II (A-II) to A-II-receptor was conducted by modifying the method of Douglas et al. [Endocrinology, 102, 685-696 (1978)]. An A-II-receptor was prepared from the membrane fraction of bovine adrenal cortex.
The compound of the present invention (10^-9 M to 3×10^-5 M) and ^125 I-A-II (1.85 kBq/50 μl) were added to the receptor membrane fraction, and the mixture was incubated at room temperature for one hour. The receptor-bound and free ^125 I-A-II were separated through a filter (Whatman GF/B filter), and the radioactivity of ^125 I-A-II bound to the receptor was measured.

[2] = tested on: A-II-induced pressor action; experiment: Inhibitory effect on pressor action of A-II (100 ng/kg i.v.) after oral administration; type: in vivo, Jcl: SD rats (9 week old, male); details: Rattus norvegicus, 30 mg/kg p.o., SD rats, read-out: Pressor Response (30 mg/Kg, p.o.) (% Inhibition)
Protocol: Jcl: SD rats (9 week old, male) were used. On the day previous to the experiment, these animals were applied with cannulation into the femoral artery and vein under anesthesia with pentobarbital Na. The animals were fasted but allowed free access to drinking water until the experiment was started. Just on the day of conducting the experiment, the artery cannula was connected with a blood-pressure transducer, and the average blood pressure was recorded by means of polygraph. Before administration of the drug, the pressor action due to intravenous administration of A-II (100 ng/kg) as the control was measured. The drugs were orally administered, and then, at each point of the measurement, A-II was administered intravenously, and the pressor action was similarly measured. By comparing the pressor action before and after administration of the drug, the precent inhibition by the drug on A-II-induced pressor action was evaluated.

inhibition at 1 µM [1] [%] | inhibition at 0.1 µM [1] [%] | SMILES | inhibition in vivo at 30 mg/kg [2] [%]
73 | 30 | CCCCc1ncc([N+](=O)[O-])c(=O)n1Cc1ccc(-c2ccccc2-c2nn[nH]n2)cc1 [Working Example 13, 2-n-Butyl-5-nitro-3-[[2'-(1H-tetrazol-5-yl)biphenyl-4-yl-]methyl]-4(3H)-pyrimidone] | –
85 | 46 | CCCCc1nc2ccccc2c(=O)n1Cc1ccc(-c2ccccc2-c2nnn[nH]2)cc1 [Working Example 23, 2-n-Butyl-3-[[2'-(1H-tetrazol-5-yl)biphenyl-4-yl]methyl]-4(3H)-quinazolinon] | ≥ 70
41 | 3 | CCCCc1nc2cc([N+](=O)[O-])ccc2c(=O)n1Cc1ccc(-c2ccccc2-c2nn[nH]n2)cc1 [Working Example 24] | –
58 | 18 | CCCCc1nc2cc(Cl)ccc2c(=O)n1Cc1ccc(-c2ccccc2-c2nn[nH]n2)cc1 [Working Example 25] | –
74 | 36 | CCCCc1nc2cccc(C)c2c(=O)n1Cc1ccc(-c2ccccc2-c2nn[nH]n2)cc1 [Working Example 26] | ≥ 70
92 | 66 | CCCCC(=O)Oc1ccc2nc(CCCC)n(Cc3ccc(-c4ccccc4-c4nn[nH]n4)cc3)c(=O)c2c1 [Working Example 29] | ≥ 70
93 | 72 | CCCCc1nc2cccc(COC(C)=O)c2c(=O)n1Cc1ccc(-c2ccccc2-c2nn[nH]n2)cc1 [Working Example 32] | ≥ 70
97 | 77 | CCCCc1nc2ccc(OC)cc2c(=O)n1Cc1ccc(-c2ccccc2-c2nn[nH]n2)cc1 [Working Example 37] | ≥ 70
89 | 59 | CCCCc1nc2ccc(OCC(=O)OC)cc2c(=O)n1Cc1ccc(-c2ccccc2-c2nn[nH]n2)cc1 [Working Example 38] | ≥ 70
92 | 69 | CCCCc1nc2ccc(OCCOC(C)=O)cc2c(=O)n1Cc1ccc(-c2ccccc2-c2nn[nH]n2)cc1 [Working Example 39] | ≥ 70
83 | 48 | CCCc1nc2ccc(OCCOC(=O)c3ccccc3)cc2c(=O)n1Cc1ccc(-c2ccccc2-c2nn[nH]n2)cc1 [Working Example 41] | ≥ 70
95 | 81 | CCCc1nc2ccc(OCC(=O)N3CCOCC3)cc2c(=O)n1Cc1ccc(-c2ccccc2-c2nn[nH]n2)cc1 [Working Example 48] | –
95 | 73 | CCCCc1nc2cccc(COC)c2c(=O)n1Cc1ccc(-c2ccccc2-c2nn[nH]n2)cc1 [Working Example 50] | –
88 | 74 | CCCCc1nc2cccc(CO)c2c(=O)n1Cc1ccc(-c2ccccc2-c2nnn[nH]2)cc1 [Working Example 54, 2-Butyl-5-hydroxymethyl-3-[[2'-(1H-tetrazol-5-yl)biphenyl-4-yl]methyl]-4(3H)-quinazolinone] | ≥ 70
94 | 75 | CCCCc1nc2ccc(OCCO)cc2c(=O)n1Cc1ccc(-c2ccccc2-c2nnn[nH]2)cc1 [Working Example 55, 2-Butyl-6-(2-hydroxyethyloxy)-3-[[2'-(1H-tetrazol-5-yl)biphenyl-4-yl]-methyl]-4(3H)-quinazolinone] | ≥ 70

The next lines start with the compound.

SMILES | inhibition at 1 µM [1] [%] | inhibition at 0.1 µM [1] [%] | inhibition in vivo at 30 mg/kg [2] [%]
CCCCc1cc(=O)c(C(=O)OCC)cn1Cc1ccc(-c2ccccc2C(=O)O)cc1 [Working Example 1, Ethyl 6-n-butyl-1-[(2'-carboxybiphenyl-4-yl)methyl]-4-oxo-1,4-dihydronicotinate] | 67 | 24 | –
CCCCc1cc(=O)c(C(=O)OCC)cn1Cc1ccc(-c2ccccc2-c2nnn[nH]2)cc1 [Working Example 2, Ethyl 6-n-butyl-4-oxo-1-[[2'-(1H-tetrazol-5-yl)biphenyl-4-yl]methyl]-1,4-dihydronicotinate] | 67 | 25 | –
CCCCCc1cc(=O)c(C(=O)OCC)cn1Cc1ccc(-c2ccccc2-c2nn[nH]n2)cc1 [Working Example 3] | 71 | 28 | –
CCCc1cc(=O)c(C(=O)OCC)cn1Cc1ccc(-c2ccccc2-c2nn[nH]n2)cc1 [Working Example 4] | 72 | 31 | –
CCCCc1nc(COC)cc(=O)n1Cc1ccc(-c2ccccc2-c2nnn[nH]2)cc1 [Working Example 8, 2-n-Butyl-3-[[2'-(1H-tetrazol-5-yl)biphenyl-4-yl]methyl]-6-methoxymethyl-4(3H)-pyrimidone] | 73 | 29 | –
CCCCc1ncc(C(=O)OCC)c(=O)n1Cc1ccc(-c2ccccc2-c2nnn[nH]2)cc1 [Working Example 10, Ethyl 2-n-butyl-4-oxo-3-[[2'-(1H-tetrazol-5-yl)biphenyl-4-yl]methyl]-3,4-dihydropyrimidine-5-carboxylate] | 75 | 32 | –
CCCCc1nc(=O)c(C(=O)OCC)cn1Cc1ccc(-c2ccccc2-c2nnn[nH]2)cc1 [Working Example 11, Ethyl 2-n-butyl-4-oxo-1-[[2'-(1H-tetrazol-5-yl)biphenyl-4-yl]methyl]-1,4-dihydropyrimidine-5-carboxylate] | 70 | 29 | –
CCCCc1nc(CC(=O)OC)cc(=O)n1Cc1ccc(-c2ccccc2-c2nnn[nH]2)cc1 [Working Example 16, 2-n-Butyl-6-methoxycarbonylmethyl-3-[[2'-(1H-tetrazol-5-yl)biphenyl-4-yl]methyl]-4(3H)-pyrimidone] | 68 | 31 | –
CCCc1nc2ccc(OCC(=O)NCc3ccccc3)cc2c(=O)n1Cc1ccc(-c2ccccc2-c2nn[nH]n2)cc1 [Working Example 49] | 88 | 63 | –
CCCc1nc2ccc(OCCO)cc2c(=O)n1Cc1ccc(-c2ccccc2-c2nnn[nH]2)cc1 [Working Example 53, 6-(2-Hydroxyethyloxy)-2-propyl-3-[[2'-(1H-tetrazol-5-yl)biphenyl-4-yl]methyl]-4(3H)-quinazolinone] | 92 | 76 | ≥ 70
